Source: patent publication EP4745137A1 (Gluetacs Therapeutics (Shanghai) Co., Ltd., priority 2023, dated 2025)

What was measured:
WEE1 = target: T1, WEE1 (Homo sapiens, UniProt P30291+Q96SW2); test: Western-blot assay of substrate protein degradation in hPBMCs, WEE1; format: cell-based; settings: 24 hours of compound treatment, compounds tested at 50 nM and 500 nM (concentration of the table not stated)
T1 construct: endogenous in cells; host or cells: hPBMCs (Milecell Biotechnologies)

IKZF1 = target: T2, IKZF1 (Homo sapiens, UniProt Q13422+Q96SW2); test: Western-blot assay of substrate protein degradation in hPBMCs, IKZF1; format: cell-based; settings: 24 hours of compound treatment, compounds tested at 50 nM and 500 nM (concentration of the table not stated)
T2 construct: endogenous in cells; host or cells: hPBMCs (Milecell Biotechnologies)

IKZF2 = target: T3, IKZF2 (Homo sapiens, UniProt Q96SW2+Q9UKS7); test: Western-blot assay of substrate protein degradation in hPBMCs, IKZF2; format: cell-based; settings: 24 hours of compound treatment, compounds tested at 50 nM and 500 nM (concentration of the table not stated)
T3 construct: endogenous in cells; host or cells: hPBMCs (Milecell Biotechnologies)

IKZF3 = target: T4, IKZF3 (Homo sapiens, UniProt Q96SW2+Q9UKT9); test: Western-blot assay of substrate protein degradation in hPBMCs, IKZF3; format: cell-based; settings: 24 hours of compound treatment, compounds tested at 50 nM and 500 nM (concentration of the table not stated)
T4 construct: endogenous in cells; host or cells: hPBMCs (Milecell Biotechnologies)

CK1α = target: T5, CK1α (Homo sapiens, UniProt P48729+Q96SW2); test: Western-blot assay of substrate protein degradation in hPBMCs, CK1α; format: cell-based; settings: 24 hours of compound treatment, compounds tested at 50 nM and 500 nM (concentration of the table not stated)
T5 construct: endogenous in cells; host or cells: hPBMCs (Milecell Biotechnologies)

GSPT1 = target: T6, GSPT1 (Homo sapiens, UniProt P15170+Q96SW2); test: Western-blot assay of substrate protein degradation in hPBMCs, GSPT1; format: cell-based; settings: 24 hours of compound treatment, compounds tested at 50 nM and 500 nM (concentration of the table not stated)
T6 construct: endogenous in cells; host or cells: hPBMCs (Milecell Biotechnologies)

[1] = target: T7, human Cereblon WT GST-tagged protein (Homo sapiens, UniProt Q96SW2); test: CRBN-binding affinity by HTRF (CEREBLON BINDING kit); settings: HTRF inhibitory activity, CEREBLON BINDING kit; read-out: HTRF IC50
T7 construct: purchased CISBIO 64BDCRBNPEH
Description: The CEREBLON BINDING kits (specification: 10,000 tests; product number: Catalog # 64BDCRBNPEH; CISBIO company) was used to determine the CRBN binding ability of the compounds to be tested through a HTRF method (homogeneous time-resolved fluorescence). The specific methods are as follows: • 1. […] Specifically, diluent #9 (1X) solution was used as the diluent, and multiple concentration gradients were set. […] Then, 2.5 µL of human Cereblon WT GST-tagged protein solution was added to each well. Finally, 5 µL of the thoroughly mixed Thalidomide-Re reagent and GST Eu antibody working solution were added to each of the aforementioned wells. […] The blank control wells were sequentially added with 2.5 µL of diluent #9 (1X) solution, 2.5 µL of binding buffer, and 5 µL of thoroughly mixed Thalidomide-Re reagent and GST Eu antibody working solution. • 4.

T6 sequence (P15170 whole entry): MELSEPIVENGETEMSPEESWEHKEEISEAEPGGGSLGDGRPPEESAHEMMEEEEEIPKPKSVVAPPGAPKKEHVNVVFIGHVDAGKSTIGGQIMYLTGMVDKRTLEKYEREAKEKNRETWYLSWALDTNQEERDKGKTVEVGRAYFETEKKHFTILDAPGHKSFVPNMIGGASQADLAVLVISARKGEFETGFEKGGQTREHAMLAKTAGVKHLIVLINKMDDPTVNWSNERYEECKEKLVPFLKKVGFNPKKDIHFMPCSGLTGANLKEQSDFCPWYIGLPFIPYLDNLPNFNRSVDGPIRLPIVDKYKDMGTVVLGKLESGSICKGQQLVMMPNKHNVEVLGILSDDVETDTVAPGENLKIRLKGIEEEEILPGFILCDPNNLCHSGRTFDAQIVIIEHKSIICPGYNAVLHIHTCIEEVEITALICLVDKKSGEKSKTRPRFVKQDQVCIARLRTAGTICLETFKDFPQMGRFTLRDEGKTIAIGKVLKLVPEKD
T6 sequence (Q96SW2 whole entry): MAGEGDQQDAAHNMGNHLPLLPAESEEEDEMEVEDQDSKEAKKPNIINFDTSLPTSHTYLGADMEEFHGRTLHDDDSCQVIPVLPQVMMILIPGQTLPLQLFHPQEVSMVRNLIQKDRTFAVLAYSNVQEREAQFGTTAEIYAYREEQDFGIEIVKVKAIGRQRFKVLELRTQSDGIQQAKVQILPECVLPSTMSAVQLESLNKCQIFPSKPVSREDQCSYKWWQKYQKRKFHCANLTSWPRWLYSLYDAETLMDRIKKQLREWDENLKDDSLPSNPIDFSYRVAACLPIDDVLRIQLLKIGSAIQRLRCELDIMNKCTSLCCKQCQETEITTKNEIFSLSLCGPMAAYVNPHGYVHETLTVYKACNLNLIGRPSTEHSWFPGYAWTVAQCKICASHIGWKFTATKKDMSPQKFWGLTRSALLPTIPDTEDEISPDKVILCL
T6 sequence (Q16531 whole entry partner): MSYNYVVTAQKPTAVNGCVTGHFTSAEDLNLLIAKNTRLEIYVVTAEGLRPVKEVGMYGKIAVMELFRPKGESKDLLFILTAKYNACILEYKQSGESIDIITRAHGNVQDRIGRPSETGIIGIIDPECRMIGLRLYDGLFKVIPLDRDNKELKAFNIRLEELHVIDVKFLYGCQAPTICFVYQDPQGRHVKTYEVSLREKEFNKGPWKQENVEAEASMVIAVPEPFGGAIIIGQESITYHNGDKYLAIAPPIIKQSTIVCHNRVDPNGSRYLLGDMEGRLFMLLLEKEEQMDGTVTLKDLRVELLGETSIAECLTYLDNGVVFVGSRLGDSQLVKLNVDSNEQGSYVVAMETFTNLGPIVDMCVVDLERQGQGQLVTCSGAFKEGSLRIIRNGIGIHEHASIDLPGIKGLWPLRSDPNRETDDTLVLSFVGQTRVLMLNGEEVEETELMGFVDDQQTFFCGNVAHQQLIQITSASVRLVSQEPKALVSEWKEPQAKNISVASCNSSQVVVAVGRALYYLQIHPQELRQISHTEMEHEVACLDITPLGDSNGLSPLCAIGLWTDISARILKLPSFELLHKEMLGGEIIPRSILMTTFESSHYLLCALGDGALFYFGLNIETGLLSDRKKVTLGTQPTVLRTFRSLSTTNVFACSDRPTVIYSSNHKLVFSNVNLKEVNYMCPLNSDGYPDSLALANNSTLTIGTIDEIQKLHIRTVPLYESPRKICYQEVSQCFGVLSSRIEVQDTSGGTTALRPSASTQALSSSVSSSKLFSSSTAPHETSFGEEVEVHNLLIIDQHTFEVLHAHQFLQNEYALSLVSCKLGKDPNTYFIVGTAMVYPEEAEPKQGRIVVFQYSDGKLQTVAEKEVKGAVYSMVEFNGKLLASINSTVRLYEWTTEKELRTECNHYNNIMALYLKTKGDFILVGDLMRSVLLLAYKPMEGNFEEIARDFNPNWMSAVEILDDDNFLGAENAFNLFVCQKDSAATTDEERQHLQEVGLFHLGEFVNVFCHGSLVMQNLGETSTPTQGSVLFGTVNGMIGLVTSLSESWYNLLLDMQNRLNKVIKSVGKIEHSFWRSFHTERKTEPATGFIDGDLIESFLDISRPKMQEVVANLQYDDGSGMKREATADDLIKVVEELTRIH
T5 sequence (P48729 whole entry): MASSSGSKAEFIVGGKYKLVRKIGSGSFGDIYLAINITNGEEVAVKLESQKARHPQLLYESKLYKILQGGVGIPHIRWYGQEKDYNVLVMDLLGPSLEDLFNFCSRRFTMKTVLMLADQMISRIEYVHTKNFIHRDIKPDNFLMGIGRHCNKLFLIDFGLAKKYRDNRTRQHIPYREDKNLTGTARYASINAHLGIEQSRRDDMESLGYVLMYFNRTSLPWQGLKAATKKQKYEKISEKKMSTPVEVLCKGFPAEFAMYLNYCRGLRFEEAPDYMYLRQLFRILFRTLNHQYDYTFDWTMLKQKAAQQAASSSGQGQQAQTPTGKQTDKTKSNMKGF
T5 sequence (Q96SW2 whole entry): as the sequence (Q96SW2 whole entry) above
T5 sequence (Q16531 whole entry partner): as the sequence (Q16531 whole entry partner) above
T1 sequence (P30291 whole entry): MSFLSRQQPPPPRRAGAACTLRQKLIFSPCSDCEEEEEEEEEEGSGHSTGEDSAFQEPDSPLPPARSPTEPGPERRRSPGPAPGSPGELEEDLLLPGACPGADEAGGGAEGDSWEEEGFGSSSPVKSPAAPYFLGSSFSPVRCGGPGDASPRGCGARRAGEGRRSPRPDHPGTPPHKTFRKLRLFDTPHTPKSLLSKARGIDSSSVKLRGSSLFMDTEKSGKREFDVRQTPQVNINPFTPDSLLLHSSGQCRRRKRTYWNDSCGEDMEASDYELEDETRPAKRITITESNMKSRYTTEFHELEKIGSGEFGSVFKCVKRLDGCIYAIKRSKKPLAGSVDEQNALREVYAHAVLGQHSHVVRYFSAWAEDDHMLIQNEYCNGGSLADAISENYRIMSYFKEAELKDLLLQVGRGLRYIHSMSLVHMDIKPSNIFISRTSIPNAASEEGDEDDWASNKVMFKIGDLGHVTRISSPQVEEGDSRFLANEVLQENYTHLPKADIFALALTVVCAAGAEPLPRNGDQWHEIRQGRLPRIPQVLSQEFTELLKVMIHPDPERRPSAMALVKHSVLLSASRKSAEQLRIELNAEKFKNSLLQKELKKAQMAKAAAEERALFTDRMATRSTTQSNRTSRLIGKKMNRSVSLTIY
T1 sequence (Q96SW2 whole entry): as the sequence (Q96SW2 whole entry) above
T1 sequence (Q16531 whole entry partner): as the sequence (Q16531 whole entry partner) above
T3 sequence (Q9UKS7 whole entry): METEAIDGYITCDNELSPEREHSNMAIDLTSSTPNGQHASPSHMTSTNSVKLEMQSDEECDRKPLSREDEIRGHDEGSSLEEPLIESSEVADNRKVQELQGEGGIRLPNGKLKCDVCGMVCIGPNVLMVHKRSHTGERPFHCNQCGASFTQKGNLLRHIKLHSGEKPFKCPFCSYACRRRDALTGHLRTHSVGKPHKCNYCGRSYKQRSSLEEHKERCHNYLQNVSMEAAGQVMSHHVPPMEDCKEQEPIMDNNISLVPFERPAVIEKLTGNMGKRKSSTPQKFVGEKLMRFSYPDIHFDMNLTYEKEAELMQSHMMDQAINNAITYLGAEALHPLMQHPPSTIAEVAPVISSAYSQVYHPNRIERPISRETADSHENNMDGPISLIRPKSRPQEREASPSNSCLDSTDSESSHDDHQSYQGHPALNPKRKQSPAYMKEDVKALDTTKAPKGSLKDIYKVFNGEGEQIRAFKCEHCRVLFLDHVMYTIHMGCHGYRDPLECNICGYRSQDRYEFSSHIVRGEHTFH
T3 sequence (Q96SW2 whole entry): as the sequence (Q96SW2 whole entry) above
T3 sequence (Q16531 whole entry partner): as the sequence (Q16531 whole entry partner) above
T4 sequence (Q9UKT9 whole entry): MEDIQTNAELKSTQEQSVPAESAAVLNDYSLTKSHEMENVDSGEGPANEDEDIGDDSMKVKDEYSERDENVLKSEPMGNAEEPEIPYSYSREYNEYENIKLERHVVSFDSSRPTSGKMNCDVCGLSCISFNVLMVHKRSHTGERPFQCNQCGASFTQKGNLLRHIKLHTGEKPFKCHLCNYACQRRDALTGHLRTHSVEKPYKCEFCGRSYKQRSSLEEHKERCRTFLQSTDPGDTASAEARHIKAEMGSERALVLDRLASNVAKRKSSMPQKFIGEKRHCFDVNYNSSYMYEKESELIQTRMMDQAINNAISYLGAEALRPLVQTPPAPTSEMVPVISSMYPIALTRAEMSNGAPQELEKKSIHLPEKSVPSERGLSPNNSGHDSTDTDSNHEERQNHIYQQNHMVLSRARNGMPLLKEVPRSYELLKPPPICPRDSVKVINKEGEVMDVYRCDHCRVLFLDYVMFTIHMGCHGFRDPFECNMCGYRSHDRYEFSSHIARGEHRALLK
T4 sequence (Q96SW2 whole entry): as the sequence (Q96SW2 whole entry) above
T4 sequence (Q16531 whole entry partner): as the sequence (Q16531 whole entry partner) above
T7 sequence (Q96SW2 whole entry): as the sequence (Q96SW2 whole entry) above

| Structure (SMILES) | Weel substrate protein remaining % (WEE1) | IKZF 1 substrate protein remaining % (IKZF1) | IKZF2 substrate protein remaining % (IKZF2) | IKZF3 substrate protein remaining % (IKZF3) | CK1a substrate protein remaining % (CK1α) | GSPT1 substrate protein remaining % (GSPT1) | IC50 [1] |
| --- | --- | --- | --- | --- | --- | --- | --- |
| O=C1CCC(N2Cc3cc(CN4CCN(c5ccc(C(F)(F)F)cc5)CC4)ccc3C2=O)C(=O)N1 (centres unmarked) [GT-04451, 3-(1-oxo-5-((4-(4-(trifluoromethyl)phenyl)piperazin-1-yl)methyl)isoindolin-2-yl)piperidine-2,6-dione] | B (80%< substrate protein remaining %≤ 100%) | B (80%< substrate protein remaining %≤ 100%) | B (80%< substrate protein remaining %≤ 100%) | B (80%< substrate protein remaining %≤ 100%) | B (80%< substrate protein remaining %≤ 100%) | A (0% ≤ substrate protein remaining % ≤ 80%) | 1000 to 1500 nM |
| O=C1CCC(N2Cc3cc(CN4CCN(c5ccc(Cl)cc5Cl)CC4)ccc3C2=O)C(=O)N1 (centres unmarked) [GT-04464, 3-(5-((4-(2,4-dichlorophenyl)piperazin-1-yl)methyl)-1-oxoisoindolin-2-yl)piperidine-2,6-dione] | B (80%< substrate protein remaining %≤ 100%) | B (80%< substrate protein remaining %≤ 100%) | A (0% ≤ substrate protein remaining % ≤ 80%) | B (80%< substrate protein remaining %≤ 100%) | B (80%< substrate protein remaining %≤ 100%) | A (0% ≤ substrate protein remaining % ≤ 80%) | 1000 to 1500 nM |
| O=C1CCC(N2Cc3cc(CN4CCN(c5cccnn5)CC4)ccc3C2=O)C(=O)N1 (centres unmarked) [GT-04473, 3-(1-oxo-5-((4-(pyridazin-3-yl)piperazin-1-yl)methyl)isoindolin-2-yl)piperidine-2,6-dione] | A (0% ≤ substrate protein remaining % ≤ 80%) | A (0% ≤ substrate protein remaining % ≤ 80%) | B (80%< substrate protein remaining %≤ 100%) | B (80%< substrate protein remaining %≤ 100%) | B (80%< substrate protein remaining %≤ 100%) | A (0% ≤ substrate protein remaining % ≤ 80%) | 500 to 1000 nM |
| O=C1CCC(N2Cc3cc(CN4CCN(c5ncc(Cl)cc5Cl)CC4)ccc3C2=O)C(=O)N1 (centres unmarked) [GT-04479, 3-(5-((4-(3,5-dichloropyridin-2-yl)piperazin-1-yl)methyl)-1-oxoisoindolin-2-yl)piperidine-2,6-dione] | B (80%< substrate protein remaining %≤ 100%) | B (80%< substrate protein remaining %≤ 100%) | A (0% ≤ substrate protein remaining % ≤ 80%) | A (0% ≤ substrate protein remaining % ≤ 80%) | B (80%< substrate protein remaining %≤ 100%) | A (0% ≤ substrate protein remaining % ≤ 80%) | 500 to 1000 nM |
| O=C1CCC(N2Cc3cc(CN4CCN(c5ncc(C(F)(F)F)cc5Cl)CC4)ccc3C2=O)C(=O)N1 (centres unmarked) [GT-04480, 3-(5-((4-(3-chloro-5-(trifluoromethyl)pyridin-2-yl)piperazin-1-yl)methyl)-1-oxoisoindolin-2-yl)piperidine-2,6-dione] | A (0% ≤ substrate protein remaining % ≤ 80%) | A (0% ≤ substrate protein remaining % ≤ 80%) | A (0% ≤ substrate protein remaining % ≤ 80%) | A (0% ≤ substrate protein remaining % ≤ 80%) | A (0% ≤ substrate protein remaining % ≤ 80%) | A (0% ≤ substrate protein remaining % ≤ 80%) | 1500 to 1900 nM |
| O=C1CCC(N2Cc3cc(CN4CCN(c5ccncc5Cl)CC4)ccc3C2=O)C(=O)N1 (centres unmarked) [GT-04481, 3-(5-((4-(3-chloropyridin-4-yl)piperazin-1-yl)methyl)-1-oxoisoindolin-2-yl)piperidine-2,6-dione] | A (0% ≤ substrate protein remaining % ≤ 80%) | A (0% ≤ substrate protein remaining % ≤ 80%) | A (0% ≤ substrate protein remaining % ≤ 80%) | B (80%< substrate protein remaining %≤ 100%) | A (0% ≤ substrate protein remaining % ≤ 80%) | A (0% ≤ substrate protein remaining % ≤ 80%) | 500 to 1000 nM |
| O=C1CCC(N2Cc3cc(CN4CCN(c5ccc(Cl)nn5)CC4)ccc3C2=O)C(=O)N1 (centres unmarked) [GT-04482, 3-(5-((4-(6-chloropyridazin-3-yl)piperazin-1-yl)methyl)-1-oxoisoindolin-2-yl)piperidine-2,6-dione] | A (0% ≤ substrate protein remaining % ≤ 80%) | B (80%< substrate protein remaining %≤ 100%) | A (0% ≤ substrate protein remaining % ≤ 80%) | B (80%< substrate protein remaining %≤ 100%) | A (0% ≤ substrate protein remaining % ≤ 80%) | A (0% ≤ substrate protein remaining % ≤ 80%) | 500 to 1000 nM |
| O=C1CCC(N2Cc3cc(CN4CCN(c5cnccn5)CC4)ccc3C2=O)C(=O)N1 (centres unmarked) [GT-04483, 3-(1-oxo-5-((4-(pyrazin-2-yl)piperazin-1-yl)methyl)isoindolin-2-yl)piperidine-2,6-dione] | A (0% ≤ substrate protein remaining % ≤ 80%) | B (80%< substrate protein remaining %≤ 100%) | A (0% ≤ substrate protein remaining % ≤ 80%) | B (80%< substrate protein remaining %≤ 100%) | A (0% ≤ substrate protein remaining % ≤ 80%) | A (0% ≤ substrate protein remaining % ≤ 80%) | 500 to 1000 nM |
| O=C1CCC(N2Cc3cc(CN4CCN(c5ncccn5)CC4)ccc3C2=O)C(=O)N1 (centres unmarked) [GT-04484, 3-(1-oxo-5-((4-(pyrimidin-2-yl)piperazin-1-yl)methyl)isoindolin-2-yl)piperidine-2,6-dione] | A (0% ≤ substrate protein remaining % ≤ 80%) | B (80%< substrate protein remaining %≤ 100%) | A (0% ≤ substrate protein remaining % ≤ 80%) | B (80%< substrate protein remaining %≤ 100%) | A (0% ≤ substrate protein remaining % ≤ 80%) | A (0% ≤ substrate protein remaining % ≤ 80%) | 500 to 1000 nM |
| O=C1CCC(N2Cc3cc(CN4CCN(c5ncncn5)CC4)ccc3C2=O)C(=O)N1 (centres unmarked) [GT-04486, 3-(5-((4-(1,3,5-triazin-2-yl)piperazin-1-yl)methyl)-1-oxoisoindolin-2-yl)piperidine-2,6-dione] | A (0% ≤ substrate protein remaining % ≤ 80%) | A (0% ≤ substrate protein remaining % ≤ 80%) | A (0% ≤ substrate protein remaining % ≤ 80%) | B (80%< substrate protein remaining %≤ 100%) | A (0% ≤ substrate protein remaining % ≤ 80%) | A (0% ≤ substrate protein remaining % ≤ 80%) | 500 to 1000 nM |
| O=C1CCC(N2Cc3cc(CN4CCC(c5ccccc5C(F)(F)F)CC4)ccc3C2=O)C(=O)N1 (centres unmarked) [GT-04488, 3-(1-oxo-5-((4-(2-(trifluoromethyl)phenyl)piperidin-1-yl)methyl)isoindolin-2-yl)piperidine-2,6-dione] | B (80%< substrate protein remaining %≤ 100%) | B (80%< substrate protein remaining %≤ 100%) | A (0% ≤ substrate protein remaining % ≤ 80%) | B (80%< substrate protein remaining %≤ 100%) | A (0% ≤ substrate protein remaining % ≤ 80%) | A (0% ≤ substrate protein remaining % ≤ 80%) | 500 to 1000 nM |
